Patent US6653478B2, “Substituted benzimidazol-2-ones as vasopressin receptor antagonists and neuropeptide Y modulators” (Ortho-McNeil Pharmaceutical, Inc., priority 2000, dated 2003)
pIC50: −log10 of the molar value.

What was measured:
[1] = target: T1, NPY2 receptors (Homo sapiens, UniProt P49146); assay: Neuropeptide Y receptor binding assay (125I-PYY, KAN-TS cell membranes); details: 10 μM compound; for inhibition at 10 µM: read-out: NPY-2@10, % Inh
T1 construct: Cell Membranes from KAN-TS cells having NPY2 receptors; endogenous in cells; host or cells: KAN-TS cells (membranes)
T1 sequence (P49146 1-381): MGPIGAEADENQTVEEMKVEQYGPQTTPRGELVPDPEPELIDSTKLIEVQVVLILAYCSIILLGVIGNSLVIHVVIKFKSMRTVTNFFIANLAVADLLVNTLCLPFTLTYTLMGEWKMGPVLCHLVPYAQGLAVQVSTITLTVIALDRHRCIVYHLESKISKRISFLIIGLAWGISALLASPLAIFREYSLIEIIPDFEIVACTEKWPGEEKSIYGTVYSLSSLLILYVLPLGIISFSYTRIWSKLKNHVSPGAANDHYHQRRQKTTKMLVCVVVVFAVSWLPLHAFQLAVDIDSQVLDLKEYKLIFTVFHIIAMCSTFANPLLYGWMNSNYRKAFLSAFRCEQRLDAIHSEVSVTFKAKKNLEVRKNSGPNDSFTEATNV
Method: Neuropeptide Y Receptor Binding Assay
Load 96-well RIA racks with RIA vials (Sarstedt, cat. #73.1055)
Prepare membranes—use 2×15 cm confluent plates/96-well assay plate
Add 14 mls Homogenization buffer/cell pellet
Homogenize at high speed for 15 seconds
Transfer to 15 ml conical tube and spin 5′ at 4° C. at setting 3 in RT6000 centrifuge
Transfer supernatant to 30 ml Corex tube
Balance and spin 25′ at 15,000 rpm at 4° C.
Resuspend pellet in 10 mls Binding buffer
Homogenize at high speed for 15 sec.
Bring volume up to 50 mls in Binding buffer (25 mls/2×96-well plates)
Keep on ice until use or freeze in aliquots (2 plates/tube) in −70° C.
Prepare ^125I-PYY (for 2×96-well compound plates)
Dilute 50 uCi ^125I-PYY in 1 ml H2O
Add 0.4 ml 10% BSA to 20 ml Binding buffer
Add 150 μl ^125I-PYY, mix well
NSB (1 μM PYY final conc.): 40 μl PYY (100 μM stock)+60 μl 30% DMSO in HEPES=40 μM PYY—add 5 μl/well
Total Binding: Add 5 μl/well of Compound Diluent
Add 5 μl compound (final conc. @10 μM)
Incubate at R.T. for 1 hr.
Spin plates for 10′ at setting 9 in RT6000 centrifuge
Aspirate supernatant from tubes, add 300 μl PBS and aspirate again.
After plates are washed and aspirated, put individual tubes in 12×75 mm polypropylene carrier tubes. Count on gamma counter.

[2] = target: human V1a receptor (Homo sapiens, UniProt P37288); assay: V1a binding assay (3H-AVP displacement, HEK-293 membranes); parameters: expressed in transfected cells; host or cells: HEK-293 (membranes); details: for inhibition at 1 µM: read-out: V1a@1.0, % Inh
Method: (§1) V1a, V1b or V2 Binding Assay
(§2) Receptor binding studies were performed using recombinant human V1a, V1b or V2 receptors. Cellular membranes were harvested from HEK-293 cells transfected to express either the V1a, V1b or V2 receptors. Compounds were evaluated for their ability to displace ^3H-arginine vasopressin (^3H-AVP; specific activity 40-87 Ci/mmol; NEN Life Sciences, Boston, Mass.). Compounds were solubilized in dimethylsulfoxide (DMSO) and diluted to working concentration of 10% DMSO with assay buffer (50 mM Tris, 5 mM MgCl2, 0.1% BSA, pH 7.5). Assay buffer was supplemented with several protease inhibitors (1 mM Pefabloc, 5 μg/ml aprotinin/leupeptin/pepstatin A, 50 μg/ml bacitracin; Sigma Chemical, St. Louis, Mo.). Non-specific binding was determined using 1.25 μM arginine vasopressin (AVP; Peninsula Labs, Belmont, Calif.). Assay reagents and test compounds were added to 96-well round bottom polypropylene plates (145 μl buffer, 5 μl compound in 10% DMSO, 25 μl buffer containing 10,000 cpm tracer, 25 μl cell membrane). After incubation for 1 hour at room temperature, the well contents were aspirated across a Unifilter GF/C plate (Packard Instrument, Downers Grove, Ill.) which had been presoaked in 0.3% polyethyleneimine to prevent peptide sticking. The wells were washed repeatedly with cold saline containing 0.05% Tween 20. The plate was then dried and 25 μl Microscint-20 cocktail (Packard Instruments) added to each well. The plates were sealed and counted on a TopCount scintillation counter (Packard Instruments) using quench correction.

[3] = target: T2, human V1b receptor (Homo sapiens, UniProt P47901); assay: V1b binding assay (3H-AVP displacement, HEK-293 membranes); parameters: expressed in transfected cells; host or cells: HEK-293 (membranes); details: 10 μM compound; for inhibition at 10 µM: read-out: V1b % Inh @10
T2 sequence (P47901 1-424): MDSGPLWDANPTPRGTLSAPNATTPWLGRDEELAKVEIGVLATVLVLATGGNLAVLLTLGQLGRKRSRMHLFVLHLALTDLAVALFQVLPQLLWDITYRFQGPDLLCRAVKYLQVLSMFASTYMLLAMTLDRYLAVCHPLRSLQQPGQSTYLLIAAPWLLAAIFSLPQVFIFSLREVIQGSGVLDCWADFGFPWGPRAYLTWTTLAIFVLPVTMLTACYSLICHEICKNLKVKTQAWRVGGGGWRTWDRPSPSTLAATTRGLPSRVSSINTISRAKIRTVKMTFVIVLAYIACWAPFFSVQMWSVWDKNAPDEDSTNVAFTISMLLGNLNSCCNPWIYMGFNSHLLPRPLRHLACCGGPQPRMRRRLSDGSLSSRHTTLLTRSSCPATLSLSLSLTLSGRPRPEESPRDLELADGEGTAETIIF
Method: as §1, §2

[4] = target: human V2 receptor (Homo sapiens, UniProt P30518); assay: V2 binding assay (3H-AVP displacement, HEK-293 membranes); parameters: expressed in transfected cells; host or cells: HEK-293 (membranes); details: 1.0 μM compound; for inhibition at 1 µM: read-out: V2@1.0, % Inh
Method: as §1, §2

human V1a receptor, sequence (P37288 whole entry): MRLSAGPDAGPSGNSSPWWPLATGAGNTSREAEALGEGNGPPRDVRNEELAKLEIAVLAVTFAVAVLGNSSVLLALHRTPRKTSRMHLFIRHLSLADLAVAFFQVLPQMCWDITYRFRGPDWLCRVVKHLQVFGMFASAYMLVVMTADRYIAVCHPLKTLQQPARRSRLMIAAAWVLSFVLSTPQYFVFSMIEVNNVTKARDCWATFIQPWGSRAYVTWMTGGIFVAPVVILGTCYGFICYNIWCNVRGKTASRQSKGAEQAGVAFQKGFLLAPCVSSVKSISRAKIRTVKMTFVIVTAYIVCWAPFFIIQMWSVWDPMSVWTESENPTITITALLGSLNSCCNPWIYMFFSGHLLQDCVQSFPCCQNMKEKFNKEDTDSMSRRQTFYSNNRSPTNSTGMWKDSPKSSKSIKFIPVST
human V2 receptor, sequence (P30518 whole entry): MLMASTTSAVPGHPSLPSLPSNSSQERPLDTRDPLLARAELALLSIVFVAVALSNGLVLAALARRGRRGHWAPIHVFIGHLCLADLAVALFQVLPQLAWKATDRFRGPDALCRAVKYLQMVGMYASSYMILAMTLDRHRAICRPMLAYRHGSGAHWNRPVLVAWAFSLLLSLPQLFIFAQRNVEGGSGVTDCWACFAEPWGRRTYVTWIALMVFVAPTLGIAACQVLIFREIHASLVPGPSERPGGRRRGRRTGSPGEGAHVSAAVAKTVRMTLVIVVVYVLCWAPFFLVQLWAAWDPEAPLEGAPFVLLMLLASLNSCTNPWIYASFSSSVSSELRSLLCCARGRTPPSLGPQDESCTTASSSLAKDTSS

inhibition at 10 µM [1] [%]	pIC50 [2]	inhibition at 10 µM [3] [%]	inhibition at 1 µM [4] [%]	inhibition at 1 µM ([2]; 1.0 μM compound) [%]	inhibition at 10 µM ([2]; 10 μM compound, read-out: V1a % Inh @10) [%]	SMILES	NPY-2@10, % Inh [1] [%]	V1a@1.0, % Inh ([2]; 1.0 μM compound) [%]	V1b % Inh @10 [3] [%@10]	V2@1.0, % Inh [4] [%]
13	5.04	11	31	–	–	CC(NC(=O)N1CCC(n2c(=O)[nH]c3ccccc32)CC1)c1cccc2ccccc12 (stereo in doubt) [Compound 7]	–	–	–	–
52	6.23	0	38	–	–	O=c1[nH]c2ccccc2n1C1CCN(C(=S)NC(c2ccccc2)c2ccccc2)CC1 [Compound 1, 1-[(N1-Piperidinocarbothioyldiphenylmethylamino)-4-yl]-1,3-dihydro-benzimidazol-2-one]	–	–	–	–
–	–	–	–	–	–	COc1ccccc1NC(=S)N1CCC(n2c(=O)[nH]c3ccccc32)CC1 [Compound 4, 1-[N1-Piperidinocarbothioyl-(2-methoxyphenyl)amino-4-yl]-1,3-dihydro-benzimidazol-2-one]	6	0	0	0
16	–	0	9	20	–	COc1cc(NC(=S)N2CCC(n3c(=O)[nH]c4ccccc43)CC2)cc(OC)c1OC [Compound 6]	–	–	–	–
5	–	13	10	55	–	O=C(NC(=S)N1CCC(n2c(=O)[nH]c3ccccc32)CC1)c1ccccc1 [Compound 8]	–	–	–	–
34	6.42	–	51	–	–	Cn1c(=O)n(C2CCN(C(=S)NC(c3ccccc3)c3ccccc3)CC2)c2ccccc21 [Compound 10, 3-Methyl-1-[(N1-Piperidinocarbothioyldiphenylmethylamino)-4-yl]-1,3-dihydro-benzimidazol-2-one]	–	–	–	–
26	5.51	0	3	–	–	O=c1[nH]c2ccccc2n1C1CCN(C(=S)NCc2ccccc2)CC1 [Compound 11]	–	–	–	–
18	–	0	1	0	–	COc1ccccc1CNC(=S)N1CCC(n2c(=O)[nH]c3ccccc32)CC1 [Compound 14]	–	–	–	–
14	–	7	10	17	–	O=c1[nH]c2ccccc2n1C1CCN(C(=S)NCc2cccc3ccccc23)CC1 [Compound 15]	–	–	–	–
15	–	15	0	40	–	O=c1[nH]c2ccccc2n1C1CCN(C(=S)NCc2ccc3c(c2)OCO3)CC1 [Compound 16]	–	–	–	–
15	–	7	14	12	–	O=c1[nH]c2ccccc2n1C1CCN(C(=S)NCc2ccc(Cl)cc2Cl)CC1 [Compound 17]	–	–	–	–
10	–	3	9	22	–	COc1cccc(CNC(=S)N2CCC(n3c(=O)[nH]c4ccccc43)CC2)c1OC [Compound 18]	–	–	–	–
69	6.57	–	42	–	–	O=c1n(CCN2CCOCC2)c2ccccc2n1C1CCN(C(=S)NC(c2ccccc2)c2ccccc2)CC1 [Compound 19, 1-[(N1-Piperidinocarbothioyldiphenylmethylamino)-4-yl]-3-(2-N-morpholinoethyl)-1,3-dihydro-benzimidazol-2-one]	–	–	–	–
12	–	0	0	–	25	COc1cc(CNC(=S)N2CCC(n3c(=O)[nH]c4ccccc43)CC2)cc(OC)c1OC [Compound 20]	–	–	–	–
13	–	–	19	31	–	CCc1ccc(CCNC(=S)N2CCC(n3c(=O)[nH]c4ccccc43)CC2)cc1 [Compound 21]	–	–	–	–
11	–	0	4	45	–	O=c1[nH]c2ccccc2n1C1CCN(C(=S)NCCc2ccccc2)CC1 [Compound 22]	–	–	–	–
15	–	0	12	56	–	O=c1[nH]c2ccccc2n1C1CCN(C(=S)NCCc2cccc(Cl)c2)CC1 [Compound 23]	–	–	–	–
12	–	0	9	19	–	CN(C)c1ccc(CNC(=S)N2CCC(n3c(=O)[nH]c4ccccc43)CC2)cc1 [Compound 24]	–	–	–	–
13	–	0	0	0	–	O=c1[nH]c2ccccc2n1C1CCN(C(=S)NC(c2ccccc2)(c2ccccc2)c2ccccc2)CC1 [Compound 25, 1-[(N1-Piperidinocarbothioyltriphenylmethylamino)-4-yl]-1,3-dihydro-benzimidazol-2-one]	–	–	–	–
10	–	0	20	33	–	O=c1[nH]c2ccccc2n1C1CCN(C(=S)NCCN2CCOCC2)CC1 [Compound 26]	–	–	–	–
15	–	0	20	33	–	CC(NC(=S)N1CCC(n2c(=O)[nH]c3ccccc32)CC1)c1ccc(F)cc1 (stereo not shown) [Compound 27]	–	–	–	–
24	–	3	0	22	–	O=c1[nH]c2ccccc2n1C1CCN(C(=S)NCc2ccc(Cl)cc2)CC1 [Compound 28]	–	–	–	–
11	–	–	0	8	–	O=C(O)C(Cc1ccccc1)NC(=S)N1CCC(n2c(=O)[nH]c3ccccc32)CC1 (stereo not shown) [Compound 41]	–	–	–	–
15	–	–	9	54	–	CN1CCN(C(=O)C(Cc2ccccc2)NC(=S)N2CCC(n3c(=O)[nH]c4ccccc43)CC2)CC1 (stereo not shown) [Compound 45]	–	–	–	–
11	6.24	13	–	–	–	COC(=O)C(Cc1ccccc1)NC(=S)N1CCC(n2c(=O)n(CCCNC(=O)OCc3ccccc3)c3ccccc32)CC1 (stereo not shown) [Compound 52]	–	–	–	–
